Results from ChEMBL document CHEMBL5046249, “Synthesis, biological evaluation and cellular localization study of fluorescent derivatives of Jiyuan Oridonin A” (Eur J Med Chem, 2022).

Assays:
HGC-27 = experiment: Antiproliferative activity against human HGC-27 cells assessed as inhibition of cell growth measured after 72 hrs by SRB assay; type: functional, cell-based; conditions: HGC-27, 72 h
PC-3 = experiment: Antiproliferative activity against human PC-3 cells assessed as inhibition of cell growth measured after 72 hrs by SRB assay; type: functional, cell-based; conditions: PC-3, 72 h
[1] = Drug uptake in human HGC-27 cells assessed as increase in fluorescence intensity of green signal at 8 uM measured after 1 hr by fluorescence microscopic analysis; type: ADME, cell-based; conditions: hgc-27, 1 h
TE-1 = experiment: Antiproliferative activity against human TE-1 cells assessed as inhibition of cell growth measured after 72 hrs by SRB assay; type: functional, cell-based; conditions: TE-1, 72 h
SW1990 = experiment: Antiproliferative activity against human SW1990 cells assessed as inhibition of cell growth measured after 72 hrs by SRB assay; type: functional, cell-based; conditions: SW1990, 72 h
MGC-803 = experiment: Antiproliferative activity against human MGC-803 cells assessed as inhibition of cell growth measured after 72 hrs by SRB assay; type: functional, cell-based; conditions: MGC-803, 72 h

Row | SMILES | IC50 (PC-3) | Drug uptake [1] | IC50 (SW1990) | IC50 (MGC-803) | IC50 (HGC-27) | IC50 (TE-1)
1 | O=C1c2cccc3c(N4CCCCC4)ccc(c23)C(=O)N1CCOCCOCCOCCn1cc(CCCO)nn1 | > 32000 nM | Not Active | > 32000 nM | > 32000 nM | > 32000 nM | > 32000 nM
2 | C=C1C(=O)[C@]23[C@H](O)[C@H]1C[C@H](O)[C@H]2[C@]12CCCC(C)(C)[C@H]1C[C@H]3O[C@H]2O | 8430 nM | Not Active | 7360 nM | 7190 nM | 4980 nM | 8820 nM
3 | [N-]=[N+]=NCCCCN1C(=O)c2cccc3c(N4CCCCC4)ccc(c23)C1=O | > 32000 nM | – | > 32000 nM | > 32000 nM | > 32000 nM | > 32000 nM
4 | C=C1C(=O)[C@]23[C@H](O)[C@H]1C[C@H](O)[C@H]2[C@]12CCCC(C)(C)[C@H]1C[C@H]3O[C@H]2OCCCc1cn(CCN2C(=O)c3cccc4c(N5CCCCC5)ccc(c34)C2=O)nn1 | 470 nM | – | 1360 nM | 1230 nM | 2970 nM | 4800 nM
5 | C=C1C(=O)[C@]23[C@H](O)[C@H]1C[C@H](O)[C@H]2[C@]12CCCC(C)(C)[C@H]1C[C@H]3O[C@H]2OCCCCCCc1cn(CCOCCOCCOCCN2C(=O)c3cccc4c(N5CCCCC5)ccc(c34)C2=O)nn1 | 1270 nM | – | 2640 nM | 3870 nM | 1440 nM | 3080 nM
6 | C=C1C(=O)[C@]23[C@H](O)[C@H]1C[C@H](O)[C@H]2[C@]12CCCC(C)(C)[C@H]1C[C@H]3O[C@H]2OCCc1cn(CCCCCN2C(=O)c3cccc4c(N5CCCCC5)ccc(c34)C2=O)nn1 | 500 nM | – | 2440 nM | 1510 nM | 2450 nM | 3050 nM
7 | C=C1C(=O)[C@]23[C@H](O)[C@H]1C[C@H](O)[C@H]2[C@]12CCCC(C)(C)[C@H]1C[C@H]3O[C@H]2OCCCCCc1cn(CCN2C(=O)c3cccc4c(N5CCCCC5)ccc(c34)C2=O)nn1 | 2470 nM | – | 4630 nM | 2720 nM | 4410 nM | 5360 nM
8 | [N-]=[N+]=NCCCN1C(=O)c2cccc3c(N4CCCCC4)ccc(c23)C1=O | > 32000 nM | – | > 32000 nM | > 32000 nM | > 32000 nM | > 32000 nM
9 | C=C1C(=O)[C@]23[C@H](O)[C@H]1C[C@H](O)[C@H]2[C@]12CCCC(C)(C)[C@H]1C[C@H]3O[C@H]2OCCCCCc1cn(CCCCCCN2C(=O)c3cccc4c(N5CCCCC5)ccc(c34)C2=O)nn1 | 990 nM | – | 5020 nM | 5880 nM | 2170 nM | 10100 nM
10 | [N-]=[N+]=NCCCCCN1C(=O)c2cccc3c(N4CCCCC4)ccc(c23)C1=O | > 32000 nM | – | > 32000 nM | > 32000 nM | > 32000 nM | > 32000 nM
11 | C=C1C(=O)[C@]23[C@H](O)[C@H]1C[C@H](O)[C@H]2[C@]12CCCC(C)(C)[C@H]1C[C@H]3O[C@H]2OCCc1cn(CCCCN2C(=O)c3cccc4c(N5CCCCC5)ccc(c34)C2=O)nn1 | 740 nM | – | 1610 nM | 1510 nM | 1610 nM | 4890 nM
12 | C=C1C(=O)[C@]23[C@H](O)[C@H]1C[C@H](O)[C@H]2[C@]12CCCC(C)(C)[C@H]1C[C@H]3O[C@H]2OCCCCCc1cn(CCCN2C(=O)c3cccc4c(N5CCCCC5)ccc(c34)C2=O)nn1 | 2490 nM | – | 3650 nM | 2430 nM | 3260 nM | 4620 nM
13 | C=C1C(=O)[C@]23[C@H](O)[C@H]1C[C@H](O)[C@H]2[C@]12CCCC(C)(C)[C@H]1C[C@H]3O[C@H]2OCCCCCCc1cn(CCCCN2C(=O)c3cccc4c(N5CCCCC5)ccc(c34)C2=O)nn1 | 6160 nM | – | 4520 nM | 4590 nM | 2290 nM | 8820 nM

Further lines, with some results ahead:

Row | IC50 (PC-3) | Drug uptake [1] | IC50 (SW1990) | IC50 (MGC-803) | SMILES | IC50 (HGC-27) | IC50 (TE-1)
14 | 1240 nM | – | 1130 nM | 1320 nM | C=C1C(=O)[C@]23[C@H](O)[C@H]1C[C@H](O)[C@H]2[C@]12CCCC(C)(C)[C@H]1C[C@H]3O[C@H]2OCCCc1cn(CCCN2C(=O)c3cccc4c(N5CCCCC5)ccc(c34)C2=O)nn1 | 4110 nM | 3540 nM
15 | 930 nM | – | 1560 nM | 2650 nM | C=C1C(=O)[C@]23[C@H](O)[C@H]1C[C@H](O)[C@H]2[C@]12CCCC(C)(C)[C@H]1C[C@H]3O[C@H]2OCCc1cn(CCOCCOCCOCCN2C(=O)c3cccc4c(N5CCCCC5)ccc(c34)C2=O)nn1 | 5260 nM | 1870 nM
16 | 2380 nM | – | 3190 nM | 6060 nM | C=C1C(=O)[C@]23[C@H](O)[C@H]1C[C@H](O)[C@H]2[C@]12CCCC(C)(C)[C@H]1C[C@H]3O[C@H]2OCCCCCCc1cn(CCCN2C(=O)c3cccc4c(N5CCCCC5)ccc(c34)C2=O)nn1 | 2480 nM | 3670 nM
17 | 2450 nM | – | 2910 nM | 3150 nM | C#CCCCCCO[C@@H]1O[C@@H]2C[C@@H]3C(C)(C)CCC[C@]13[C@@H]1[C@@H](O)C[C@H]3C(=C)C(=O)[C@@]21[C@@H]3O | 2890 nM | 2440 nM
18 | 910 nM | – | 860 nM | 1690 nM | C=C1C(=O)[C@]23[C@H](O)[C@H]1C[C@H](O)[C@H]2[C@]12CCCC(C)(C)[C@H]1C[C@H]3O[C@H]2OCCCCc1cn(CCCCN2C(=O)c3cccc4c(N5CCCCC5)ccc(c34)C2=O)nn1 | 1820 nM | 3890 nM
19 | 4250 nM | – | 4230 nM | 6360 nM | C#CCCO[C@@H]1O[C@@H]2C[C@@H]3C(C)(C)CCC[C@]13[C@@H]1[C@@H](O)C[C@H]3C(=C)C(=O)[C@@]21[C@@H]3O | 6480 nM | 7390 nM
20 | 2200 nM | – | 2870 nM | 2110 nM | C=C1C(=O)[C@]23[C@H](O)[C@H]1C[C@H](O)[C@H]2[C@]12CCCC(C)(C)[C@H]1C[C@H]3O[C@H]2OCCCCc1cn(CCCCCCN2C(=O)c3cccc4c(N5CCCCC5)ccc(c34)C2=O)nn1 | 2090 nM | 4330 nM
21 | 1150 nM | – | 2160 nM | 2930 nM | C=C1C(=O)[C@]23[C@H](O)[C@H]1C[C@H](O)[C@H]2[C@]12CCCC(C)(C)[C@H]1C[C@H]3O[C@H]2OCCCCc1cn(CCOCCOCCN2C(=O)c3cccc4c(N5CCCCC5)ccc(c34)C2=O)nn1 | 1750 nM | 2260 nM
22 | > 32000 nM | – | > 32000 nM | > 32000 nM | [N-]=[N+]=NCCOCCOCCN1C(=O)c2cccc3c(N4CCCCC4)ccc(c23)C1=O | > 32000 nM | > 32000 nM
23 | 1490 nM | – | 1780 nM | 1930 nM | C=C1C(=O)[C@]23[C@H](O)[C@H]1C[C@H](O)[C@H]2[C@]12CCCC(C)(C)[C@H]1C[C@H]3O[C@H]2OCCCCCCc1cn(CCOCCN2C(=O)c3cccc4c(N5CCCCC5)ccc(c34)C2=O)nn1 | 1170 nM | 1530 nM
24 | 1410 nM | – | 2390 nM | 3830 nM | C=C1C(=O)[C@]23[C@H](O)[C@H]1C[C@H](O)[C@H]2[C@]12CCCC(C)(C)[C@H]1C[C@H]3O[C@H]2OCCCc1cn(CCOCCN2C(=O)c3cccc4c(N5CCCCC5)ccc(c34)C2=O)nn1 | 2160 nM | 2260 nM
25 | > 32000 nM | – | > 32000 nM | > 32000 nM | [N-]=[N+]=NCCOCCOCCOCCN1C(=O)c2cccc3c(N4CCCCC4)ccc(c23)C1=O | > 32000 nM | > 32000 nM
